Two compounds from US20210085630A1, “PHARMACEUTICAL COMPOSITION AND USE THEREOF IN PREPARING DRUG FOR TREATING TUMOR MULTI-DRUG RESISTANCE” (SICHUAN JIUZHANG BIOLOGICAL SCIENCE AND TECHNOLOGY CO., LTD., priority 2018, published 2021) can be followed below.

Structures can show the parent of a compound that is named as a salt. Marks after values point to notes of the source that are not given here.

The test system of assay [1] is B16 melanoma cell lines. Kind of assay: Establishment of Opdivo-resistant tumor model, tumor volume over time, B16 melanoma. The class given is in vivo. As to conditions: B16 melanoma mice, Opdivo 30 mg/kg i.p. every other day. Here is the method: (§1) The concentration of cell lines was adjusted to 1×10^7/ml with the culture medium. 1×10^7/ml of cells were subcutaneously injected into the right armpit of mice, 0.1 ml per mouse.

For assay [2], the system named is Lewis lung cancer cell lines. Kind of assay: Establishment of Opdivo-resistant tumor model, tumor volume over time, Lewis lung cancer. As to conditions: Lewis lung cancer mice, Opdivo 30 mg/kg i.p. every other day. The class given is in vivo. Here is the method:
as §1

The subject of assay [3] is Opdivo-resistant B16 melanoma. Kind of assay: Antitumor effect (tumor volume, weight, inhibition rate) in Opdivo-resistant B16 melanoma mice. The class given is in vivo. On the procedure: as §1
(§2) The model mice were randomly divided into groups, eight for one group, and included test drug group 1, test drug group 2, test drug group 3, test drug group 4, positive drug Opdivo group, single drug chlorogenic acid group, test drug 1+Opdivo group, test drug 2+Opdivo group, test drug 3+Opdivo group, test drug 4+Opdivo group, and negative group, respectively.
(§3) Test drug group: from the second day after stopping administration to the model, the group received drug by intraperitoneal injection, once a day, 30 mg/kg.
(§4) Single drug group: from the second day after stopping administration to the model, the group received drug by intraperitoneal injection, once a day, 30 mg/kg.
(§5) Test drug+Opdivo group: from the second day after stopping administration to the model, the group received the test drug by intraperitoneal injection, once a day, and the test drug was stopped after administrating for 5 consecutive days; on the next day, Opdivo was intraperitoneally injected, once every other day, with the dosage of 30 mg/kg.
(§6) Positive drug group: once every other day, 30 mg/kg.
(§7) Negative group: normal saline was intraperitoneally injected, once a day, the same amount of saline.
(§8) Before each administration, the tumor volume was measured, and the experiment was stopped when the average tumor volume of negative group was greater than 1.5 cm^3.
(§9) After completion of administration, the experiment was stopped, and the mice were killed by cervical dislocation and weighed. The tumor was stripped and weighed, to calculate the tumor inhibition rate.

For assay [4], the system named is Opdivo-resistant Lewis lung cancer. As to the kind of experiment: Antitumor effect (tumor volume, weight, inhibition rate) in Opdivo-resistant Lewis lung cancer mice. The format is in vivo. Here is the method: as §1, §2, §3, §4, §5, §6, §7, §8, §9
Assay [5] relates to PD-1/PD-L1. Kind of assay: PD-1/PD-L1 expression rate in tumor tissues of Opdivo-resistant B16 melanoma mice. The class given is in vivo. As to conditions: tumor tissues of drug-resistant (Opdivo) B16 melanoma mice. The source says:
(§10) The positive expression rate of PD-1/PD-L1 in tumor tissues was detected by immunohistochemical SP method.

In assay [6] the test system is PD-1/PD-L1. As to the kind of experiment: PD-1/PD-L1 expression rate in tumor tissues of Opdivo-resistant Lewis lung cancer mice. The class given is in vivo. As to conditions: tumor tissues of drug-resistant (Opdivo) Lewis lung cancer mice.
From the text: as §10

In assay [7] the test system is CD4+T and CD8+T lymphocytes. As to the kind of experiment: Number of CD4+T and CD8+T cells in Opdivo-resistant B16 melanoma mice. The format is in vivo. As to conditions: drug-resistant (Opdivo) B16 melanoma mice, average of 6 high power fields. On the procedure: (§11) The number of CD4+T and CD8+T lymphocytes was analyzed by immunofluorescence staining, and the average number of CD4+T and CD8+T cells infiltrated in 6 high power fields was counted.

Assay [8] relates to CD4+T and CD8+T lymphocytes. Kind of assay: Number of CD4+T and CD8+T cells in Opdivo-resistant Lewis lung cancer mice. The format is in vivo. As to conditions: drug-resistant (Opdivo) Lewis lung cancer mice, average of 6 high power fields. Here is the method: as §11
The subject of assay [9] is drug-resistant A375 melanoma cell lines. As to the kind of experiment: MTT: IC50 of dacarbazine against drug-resistant A375 cells and drug-resistant index. The class given is cell-based, human. Here is the method:
A375 melanoma cell lines were exposed to dacarbazine (400 μg/ml) for 3 months, and centrifuged, to culture dacarbazine-resistant A375 cells. The cells were observed every day, and taken through 3 passages for about 3 days, to ensure cell viability.
Above-mentioned cell lines and drug-resistant cell lines in the logarithmic growth phase were selected, the cell concentration was adjusted to 8×10^3 cells/well, and then cells were seeded in a 96-well plate. For the experiment, there were three groups: blank group, control group and dacarbazine group. In the blank group, only medium was added, without inoculating cells; in the control group, medium was added, and cells were inoculated; in the dacarbazine group, medium was added, cells were inoculated, and then dacarbazine was added at different concentrations. The plates were placed in an incubator and incubated for 48 h, then 5 mg/ml MTT (20 μl) was added to each well, and the plate was further incubated for 4 h.
Drug-resistant index=IC50 value of drug-resistant cells/IC50 value of sensitive cells

Assay [10] deals with dacarbazine-resistant B16 melanoma. As to the kind of experiment: Tumor weight and inhibition rate, transplanted dacarbazine-resistant B16 melanoma. The format is in vivo. As to conditions: dacarbazine-resistant B16 melanoma mice; test drug 30 mg/kg i.p. once a day 5 days, then dacarbazine 60 mg/kg every other day; positive drug dacarbazine 60 mg/kg. On the procedure:
B16 melanoma cell lines were induced by the increased gradient concentration of dacarbazine, and established by clone screening and cultured without drug before the experiment.
(§12) After the drug was removed from the drug-resistant cell lines, the cell concentration was adjusted to 1×10^7/ml with the culture medium. 1×10^7/ml of cells were subcutaneously injected into the right armpit of mice, 0.1 ml per mouse.
(§13) After the average diameter of tumor reached […], the mice were randomly divided into test drug group 1, test drug group 2, test drug group 3, test drug group 4, test drug group 5, test drug group 6, positive drug group, and negative group, respectively.
(§14) Test drug group: the test drug group was first intraperitoneally injected, once a day, 30 mg/kg/time, for 5 consecutive days; administration was stopped, and the positive drug was given by intraperitoneal injection on the next day; wherein the positive drug dacarbazine was administrated once every other day, 60 mg/kg/time; wherein the positive drug gemcitabine was given once every other day, 300 mg/kg/time.
(§15) Positive drug group: positive drug dacarbazine was given once every other day, 60 mg/kg/time; positive drug gemcitabine was given once every other day, 300 mg/kg/time.
(§16) Negative group: normal saline was intraperitoneally injected, once a day, for 15 consecutive days.
as §9

Assay [11] has as its system PD-1/PD-L1. As to the kind of experiment: PD-1/PD-L1 expression rate (immunohistochemical SP method), drug-resistant B16 melanoma tumor tissue. The format is in vivo. As to conditions: transplanted tumor tissues of drug-resistant B16 melanoma in mice, Example 3 regimen.
From the text: as §10

The subject of assay [12] is CD4+T and CD8+T lymphocytes. Kind of assay: Number of CD4+T and CD8+T cells (immunofluorescence), drug-resistant B16 melanoma transplanted tumor. The class given is in vivo. As to conditions: transplanted tumor of drug-resistant B16 melanoma in mice, average of 6 high power fields. Here is the method:
as §11

Assay [13] concerns multi-drug resistant Lewis lung cancer. Kind of assay: Tumor weight and inhibition rate, transplanted multi-drug resistant Lewis lung cancer. The class given is in vivo, mice. As to conditions: multi-drug resistant Lewis lung cancer mice; test drug 30 mg/kg i.p. 5 days, then gemcitabine 300 mg/kg or dacarbazine 60 mg/kg every other day. On the procedure:
Lewis lung cancer cell lines were induced by the increased gradient concentration of dacarbazine and gemcitabine, and established by clone screening, then cultured without drug before the experiment.
as §12, §13, §14, §15, §16, §9

Assay [14] has as its system PD-1/PD-L1. Kind of assay: PD-1/PD-L1 expression rate in transplanted tumor tissues, multidrug resistance model. As to conditions: transplanted tumor tissues of B16 melanoma mice with multidrug resistance (as titled), Example 5 regimen. The format is in vivo.
From the text: as §10

Assay [15] deals with CD4+T and CD8+T lymphocytes. As to the kind of experiment: Number of CD4+T and CD8+T lymphocytes in transplanted tumor of multidrug-resistant Lewis lung cancer mice. The format is in vivo. As to conditions: average of 6 high power fields. Here is the method:
as §11

[16] abbreviates: 30 mg/kg i.p. once a day, + Opdivo groups: test drug 5 days, then Opdivo 30 mg/kg every other day.
Setting [17] is: 30 mg/kg i.p., + Opdivo groups 30 + 30 mg/kg.

Take “Opdivo: human programmed death receptor-1 (PD-1) blocking antibody; PD-1 inhibitor”: the “Tumor volume, Model group (cm^3)” value is 0.00 ± 0.000 ** cm^3 in assay [1] (2 d after inoculation); 0.084 ± 0.047 ** cm^3 in assay [1] (4 d after inoculation); 0.106 ± 0.043 ** cm^3 in [1] (6 d after inoculation); 0.128 ± 0.062 ** cm^3 in assay [1] (8 d after inoculation); 0.179 ± 0.147 ** cm^3 in assay [1] (10 d after inoculation); 0.286 ± 0.116 ** cm^3 in assay [1] (12 d after inoculation). Also, the “Tumor volume, Model group (cm^3)” value in assay [1] (14 d after inoculation) is 0.881 ± 0.204 cm^3; in assay [2] (4 d after inoculation), 0.00 ± 0.000 ** cm^3; in [2] (6 d after inoculation), 0.073 ± 0.052* cm^3; in [2] (8 d after inoculation), 0.098 ± 0.075** cm^3; in assay [2] (10 d after inoculation), 0.121 ± 0.101** cm^3; in [2] (12 d after inoculation), 0.164 ± 0.084** cm^3. In addition, the “Tumor volume, Model group (cm^3)” value is on record as 0.226 ± 0.113** cm^3 in assay [2] (14 d after inoculation), 0.464 ± 0.154* cm^3 in assay [2] (16 d after inoculation) and 0.984 ± 0.236 cm^3 in assay [2] (18 d after inoculation). Moreover, the “continuous treatment effect / effect on tumor volume control (in words)” value in assay [3] and in [4] was “not obvious” each time. Further, the “Tumor volume (cm^3)” value in assay [3] (setting [16]) is 1.793 ± 0.842 cm^3; in assay [4] (setting [16]), 1.616 ± 0.772 cm^3. Also, the “Tumor inhition rate (%)” value in [3] (setting [17]) is recorded as 1.41%. For the same compound, the “Tumor weight” value is 2.79 ± 1.13 g in assay [3] (setting [17]) and 2.52 ± 0.83 g in assay [4] (setting [17]). For the same compound, in assay [4] (setting [17]), the “Tumor inhibition rate (%)” value is reported as 2.38%. Further, the “Expression rate of PD-1/PD-L1, Positive PD-L1” value (shortened to “Expression rate of PD-1/PD-L1”) worked out at 85.87% in assay [5] and 72.77% in [6]. The “CD4 + T cells (number)” value is 74.63 ± 6.35 in assay [7] and 64.22 ± 7.74 in [8]. Moreover, the entries for the “CD8 + T cells (number)” value in assay [7] and in [8] were 88.61 ± 5.82 and 117.81 ± 7.99, respectively.

With `CN(C)/N=N/c1[nH]cnc1C(N)=O` [Dacarbazine, 5-(3,3-dimethyl-1-triazenyl)-4-carboxamideimidazolium citrate, reference compound], in assay [9] (Homo sapiens, A-375, dacarbazine against drug-resistant A375 melanoma cell lines, MTT, 48 h, read-out: IC50 Concentration), the IC50 is 560 mg/L. In addition, the Drug-resistant index in [9] (IC50 of drug-resistant cells/IC50 of sensitive cells, A375) is given as 6.22. For the same compound, in [10], the “Tumor inhibition rate (%)” value came to 4.55% and the “Tumor weight” value was found to be 2.52 ± 0.77 g. Moreover, in assay [11], the “Expression rate of PD-1/PD-L1” value is given as 72.51%. Also, in [12], the “CD4 + T cells (number)” value came out at 63.67 ± 5.83 and the “CD8 + T cells (number)” value was found to be 91.23 ± 3.84. In addition, in assay [13], the “Tumor weight” value was 2.33 ± 0.52 g and the “Tumor-inhibition rate (%)” value is reported as 1.27%. In addition, the “Expression rate of PD-1/PD-L1” value in assay [14] came out at 72.51%. In [15], the “CD4 + T cells (number)” value was determined as 74.52 ± 7.38 and the “CD8 + T cells (number)” value came out at 123.74 ± 12.85.
